Data from US20090317461A1, “ORAL COMPOSITIONS EFFECTIVE FOR THE TREATMENT OF ORAL CAVITY MALODOR ASSOCIATED WITH THE CONSUMPTION OF ODOR-CAUSING COMPOUNDS” (Wm. Wrigley Jr. Company, priority 2006, published 2009).

Experiments:
[1] = Menthol treatment of garlic model solution, TIC chromatogram peak area (Example 47)
Description: The following example details testing of menthol for treatment of solutions with characteristic garlic aroma. Model solutions containing raw chopped garlic dispersed in water were prepared as described in Example 1. Portions of model solution (2.5 g) were treated with menthol in varying amounts (0.5 mg, 1.0 mg, and 1.5 mg).

[2] = Headspace diallyl disulfide of garlic model solution treated with menthone, GC/MS at 5 hour intervals (Example 3); conditions: menthone 1.63 mg in 2.5 g model solution; at each headspace analysis interval (5 hour intervals)
Description: A model solution containing raw chopped garlic dispersed in water was prepared as described in Example 1. […] For comparison purposes, the diallyl disulfide content of the headspace of a control model solution (i.e., no menthone added) was also analyzed.

[3] = Sensory analysis: ten panelists rate odor intensity of raw macerated garlic solution with and without active; conditions: for reduction of odor (intensity) of raw macerated garlic in water: sensory panel; for Odor Intensity (0-100), Mean: N = 10 panelists
Description: Sensory analysis of the solutions utilized for analytical analyses of the raw garlic described above was conducted by ten panelists who evaluated the odor intensity of the model solution (raw macerated garlic) with and without the different levels of added active. Odor intensity was assessed utilizing a 0-100 point scale ballot with 0=no odor and 100=very strong odor.

SMILES | reduction in odor-causing compounds ([1]; 0.5 mg in 2.5 g model solution) | reduction in odor-causing compounds ([1]; 1 mg in 2.5 g model solution) | reduction in odor-causing compounds ([1]; 1.5 mg in 2.5 g model solution) | less diallyl disulfide in headspace than control model solution [2] | reduction of odor (intensity) of raw macerated garlic in water ([3]; active concentration 0.3 mg/g) [%] | reduction of odor (intensity) of raw macerated garlic in water ([3]; active concentration 3 mg/g) [%] | Odor Intensity (0-100), Mean ([3]; menthone 0.33 mg/g) | Odor Intensity (0-100), Mean ([3]; menthone 1 mg/g) | Odor Intensity (0-100), Mean ([3]; menthone 3 mg/g)
CC1CCC(C(C)C)C(O)C1 (stereo not drawn) [menthol] | approximately 43% | approximately 51% | approximately 60% | – | – | – | – | – | –
CC(C)[C@@H]1CC[C@@H](C)CC1=O [menthone] | – | – | – | at least 50% | 48 | 80 | 5.2 | 2.7 | 2
